pIC50: −log10 of the molar value.
Experiments:
[1] = Auditory startle response, nicotine withdrawal; assay type: in vivo, Male Long Evans rats
Excerpt: (§1) In humans, withdrawal from the chronic administration of benzodiazepines or nicotine can result in a variety of undesirable side-effects, including anxiety. […] Withdrawal from chronic nicotine administration also has anxiogenic effects as indicated by decreased time spent in the light compartment of a light/dark box (Costall et al., Ibid) and increased auditory startle responses. Applicants examined the effects of compounds of this invention on the auditory startle response of rats undergoing withdrawal from the chronic administration of diazepam or nicotine.
(§2) Male Long Evans rats (200-220 g; Harlan Sprague Dawley, Columbus, Ind.) were individually housed in a controlled environment on a 12 hour light-dark cycle and were given free access to food (Purina Rodent Chow) and water. All treatment groups contained 8-10 rats.
(§3) Rats were anesthetized with halothane and Alzet osmotic minipumps (Alza Corporation, Palo Alto, Calif., Model 2ML2) were implanted subcutaneously. Diazepam (Sigma Chemical; St. Louis, Mo.) was suspended in 40% polyethylene glycol, 10% ethanol and Tween 80. Nicotine ditartrate was dissolved in physiological saline. Pumps were filled with either diazepam (20 mg/kg/day), nicotine ditartrate (6 mg/kg base/day), or the appropriate vehicle. Twelve days following implantation of pumps, rats were anesthetized with halothane and the pumps were removed.
(§4) The sensory motor reactions [auditory startle response (peak amplitude, Vmax)]of individual rats was recorded using San Diego Instruments startle chambers (San Diego, Calif.). Startle sessions consisted of a 5-minute adaptation period at a background noise level of 70±2 dBA immediately followed by 25 presentations of auditory stimuli (120±3 dBA noise, 50 ms duration) presented at 8-second intervals. Peak startle amplitudes were then averaged for all 25 presentations of stimuli for each session. Auditory startle responding was evaluated daily at 24 hour intervals on days 1-4 following drug withdrawal.
(§5) The compound of Example 141 was administered 60 minutes before startle testing at doses of 0, 10, 30, 60, or 100 mg/kg.

[2] = 2:1 dmf:h2o
[3] = Auditory startle response, benzodiazepine (diazepam) withdrawal; assay type: in vivo, Male Long Evans rats; conditions: for benzodiazepine withdrawal-induced increase in sensory responsiveness: 60 minutes before startle testing, days 1-4
Excerpt: as §1, §2, §3, §4, §5

Catalepsy bar test = assay type: in vivo, Male Sprague-Dawley rats
Description: Acute administration of classical antipsychotic drugs results in catalepsy. Production of catalepsy is thought to be predictive of Parkinson-like extrapyramidal side effects. Sanberg, et al., Neuroscience 102:748-759 (1988). […] Haloperidol, a classical anti-psychotic, was used as a reference.
Male Sprague-Dawley rats (290-350 g) were used in these studies. Catalepsy was evaluated using the bar test (Sanberg et al., Neurosci., 102,748-759, (1988); Ferre, et al., Pharm. Biochem. Beh., 35, 753-757 (1990). The bar apparatus consisted of a horizontal metal rod with a diameter of 1 cm, which was positioned 10 cm from the floor to the top of the bar. The animal was gently placed in front of the bar, and then its forepaws were lifted to rest on the bar. The length of time, in seconds, until both forepaws touched the floor (3 minutes maximum allowed) was recorded. A baseline measurement was taken prior to injection, and catalepsy was evaluated every 60 minutes for three hours after injection of the compounds (Table IV). In a separate set of experiments, the compounds of this invention were administered 60 minutes prior to the administration of haloperidol, and catalepsy was evaluated every 60 minutes for three hours after the haloperidol injection. Catalepsy scores of drug-treated animals were compared to haloperidol- or vehicle-treated animals at each time point using the analysis of variance (ANOVA) (Table V). Haloperidol (Research Biochemicals Inc.) was dissolved in distilled water and a small amount of 0.1N lactic acid. The compounds of this invention were prepared in 50% ethanol. The volume of all injections was 1 ml/kg.

brain CCK receptor = molecular target: T1, brain CCK receptor (Mus musculus, UniProt P56481); test: CCK receptor binding, mouse brain membranes (125I-CCK-8 sulfate)
T1 construct: from tissue; host or cells: forebrain membranes of male CF-1 mice
T1 sequence (P56481 1-453): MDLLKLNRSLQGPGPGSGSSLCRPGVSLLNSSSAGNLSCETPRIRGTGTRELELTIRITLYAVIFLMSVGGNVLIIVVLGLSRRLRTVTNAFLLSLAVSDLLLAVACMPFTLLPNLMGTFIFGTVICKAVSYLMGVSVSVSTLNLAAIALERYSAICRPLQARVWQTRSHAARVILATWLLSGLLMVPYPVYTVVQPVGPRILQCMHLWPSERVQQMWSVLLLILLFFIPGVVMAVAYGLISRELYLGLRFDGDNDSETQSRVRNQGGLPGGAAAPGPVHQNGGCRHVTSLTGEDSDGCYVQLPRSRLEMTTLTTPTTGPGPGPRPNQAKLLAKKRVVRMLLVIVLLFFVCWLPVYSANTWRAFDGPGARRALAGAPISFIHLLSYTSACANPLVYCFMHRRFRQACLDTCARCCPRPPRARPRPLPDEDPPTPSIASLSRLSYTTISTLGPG

[4] = CCK-induced gall bladder emptying in anesthetized ferrets; assay type: in vivo, male ferrets
Description: (§6) Experiments were performed on fasted (18 hour) male ferrets weighing 0.8-1.5 kilograms (Triple F Supplier) and water was given ad lib. Anesthesia was induced with urethane (0.2 ml/100 grams body weight j.p., Sigma Chemical Company), a tracheal tube was inserted to provide a clear airway for spontaneous breathing and the body temperature was maintained at 38° using a homeothermic blanket (Harvard Apparatus). The left jugular vein was cannulated (PE-50, i.d. 0.58 mm, o.d. 0.97 mm) for the subsequent administration of drugs and the left carotid artery was cannulated (PE-90, i.d. 0.86 mm, o.d. 1.277 mm) for the continual measurement of blood pressure and heart rate. Following a laporatomy, a catheter (PE-50) was inserted into the gall bladder through the bile duct and connected via a pressure transducer to a chart recorder for the visual display. The colon was located and a strain gauge transducer was sutured in the circular muscle direction to monitor contractile state. Before each experiment the blood pressure, heart rate and all motility recording transducers were calibrated for subsequent recording of data.
Following a 30 minute stabilization period, cholecystokinin 8-sulfated (CCK8-S) was given at doses of 100, 300 and 700 ng/kg intravenously (iv), with a 10 minute stabilization period in between CCK8-S doses. The test compound was administered (iv) after another 30 minute stabilization period, and the CCK8-S dose-response curve was repeated five minutes later.
Test compound vehicle was 3 drops of DMSO (99.9%), 0.5 ml 0.1N NaOH, saline.

[5] = CCK-induced colonic motility in anesthetized ferrets; assay type: in vivo, male ferrets
Description: as §6
Following a 30 minute stabilization period, cholecystokinin 8-sulfated (CCK8-S) was given at doses of 100, 300 and 700 ng/kg intravenously (iv), with a 10 minute stabilization period in between CCK8-S doses. […]

[6] = molecular target: T2, peripheral type CCK receptors in rat pancreas (Rattus norvegicus, UniProt P30551); test: Binding to peripheral type CCK receptors in rat pancreas (3H-L-364,718); conditions: at 10 μM; read-out: Pancreas Percent Inhibition
T2 construct: Pancreas was obtained from male Sprague-Dawley rats; from tissue; host or cells: pancreas membranes of male Sprague-Dawley rats
T2 sequence (P30551 1-444): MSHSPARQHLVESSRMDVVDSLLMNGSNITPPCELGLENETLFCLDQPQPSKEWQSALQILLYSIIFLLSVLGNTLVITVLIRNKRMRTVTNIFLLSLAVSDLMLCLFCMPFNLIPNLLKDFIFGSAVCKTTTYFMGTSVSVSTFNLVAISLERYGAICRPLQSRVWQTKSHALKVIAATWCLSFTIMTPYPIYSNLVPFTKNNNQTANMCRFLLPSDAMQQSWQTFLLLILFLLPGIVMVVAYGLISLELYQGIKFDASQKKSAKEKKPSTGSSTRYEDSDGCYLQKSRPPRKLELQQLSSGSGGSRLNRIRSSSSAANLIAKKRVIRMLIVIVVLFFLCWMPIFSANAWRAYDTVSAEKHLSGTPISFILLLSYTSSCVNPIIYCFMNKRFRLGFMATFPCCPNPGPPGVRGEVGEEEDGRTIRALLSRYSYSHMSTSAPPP
Method in brief: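 Washed pancreatic membranes from male Sprague-Dawley rats (150-200 g) incubated 1 h at room temperature with 0.4-0.6 nM ³H-L-364,718 in 50 mM Tris pH 7.4, 5 mM MgCl2, bacitracin, 5 mM DTT. Bound radioactivity counted after filtration; nonspecific binding defined with 100 nM L-364,718; IC50 determined.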

With `CN1CCC[C@H]1c1cccnc1` [nicotine, reference compound] the “auditory startle response after cessation of chronic nicotine” value ([1]; 6 mg kg base/day, minipump, twelve days, withdrawal) was “significantly increased auditory startle responses”.
For “1-[(4-Bromophenyl)aminocarbonyl]-2-carboxymethyl-4,5-diphenyl-3-pyrazolidinone and 1-[(4-bromophenyl)aminocarbonyl]-3-carboxymethoxy-4,5-diphenyl-2-pyrazoline [Example 12]”, the “titration pKa” value [2] was 4.8.
In the case of `O=C1NN(C(=O)Nc2ccc(Br)cc2)[C@@H](c2ccccc2)[C@@H]1c1ccccc1` (single isomer, unassigned) [Example 141, (+)-trans-1-[(4-Bromophenyl)aminocarbonyl]-4,5-diphenyl-3pyrazolidinone], the “benzodiazepine withdrawal-induced increase in sensory responsiveness” value ([3]; 60 mg/kg) was “significantly reduced the benzodiazepine withdrawal-induced increase in sensory responsiveness on all days examined”, the “benzodiazepine withdrawal-induced increase in sensory responsiveness” value ([3]; 100 mg/kg) was “significantly reduced the benzodiazepine withdrawal-induced increase in sensory responsiveness on all days examined” and the “Catalepsy Score” value (Catalepsy bar test; 10 mg/kg, 60 Min) was 3.8 ± 0.9 s. For the same compound, the “Catalepsy Score” value (Catalepsy bar test; 10 mg/kg, 120 Min) was 3.3 ± 1.2 s, the “Catalepsy Score” value (Catalepsy bar test; 10 mg/kg, 180 Min) was 4.6 ± 2.1 s and the “Catalepsy Score” value (Catalepsy bar test; 10 mg/kg, Pre) was 1.1 ± 0.2 s. The “Catalepsy Score” value (Catalepsy bar test; 30 mg/kg, 60 Min) was 2.6 ± 1.1 s, the “Catalepsy Score” value (Catalepsy bar test; 30 mg/kg, 120 Min) was 2.0 ± 0.6 s and the “Catalepsy Score” value (Catalepsy bar test; 30 mg/kg, 180 Min) was 4.9 ± 1.9 s. For the same compound, the “Catalepsy Score” value (Catalepsy bar test; 30 mg/kg, Pre) was 1.5 ± 0.3 s, the “nicotine withdrawal-induced increase in startle response” value ([1]; 10 mg/kg, days 1-4) was “significantly reduced the nicotine withdrawal-induced increase in startle response on all days except day 4” and the “nicotine withdrawal-induced increase in sensory responsiveness” value ([1]; 30 mg/kg, days 1-4) was “significantly reduced the nicotine withdrawal-induced increase in sensory responsiveness on all days examined”. The “nicotine withdrawal-induced increase in sensory responsiveness” value ([1]; 60 mg/kg, days 1-4) was “significantly reduced the nicotine withdrawal-induced increase in sensory responsiveness on all days examined” and the pIC50 (brain CCK receptor; mouse brain membranes, read-out: Brain IC50) was 7.80.
In the case of `O=C1NN(C(=O)Nc2ccccc2)[C@@H](c2ccccc2)[C@@H]1c1ccccc1` (racemic) [Example 15, (±)-trans-1-phenylaminocarbonyl-4,5-diphenyl-3-pyrazolidinone], the gall bladder emptying ([4]; 1 mg/kg iv, CCK 300 ng/kg) was “not measurably altered”, the “alteration of CCK-induced gall bladder emptying” value ([4]; CCK-8 100 ng/kg) was “about 10%” and the “effect on CCK-induced gall bladder emptying” value ([4]; in words) was “without affecting CCK-induced gall bladder emptying”. For the same compound, the “inhibition of CCK-induced colonic motility” value ([5]; 1 mg/kg iv, CCK 300 ng/kg) was 57%, the “inhibition of colonic motility” value ([5]; CCK-8 100 ng/kg) was roughly 75% and the inhibition at 10 µM [6] was 10%. It also gave an inhibition at 10 µM (brain CCK receptor; at 10 μM, read-out: Brain Percent Inhibition) of 69%.
For `CN1C(=O)CN=C(c2ccccc2)c2cc(Cl)ccc21` [diazepam, reference compound], the “auditory startle response after cessation of chronic diazepam” value ([3]; 20 mg/kg/day, minipump, twelve days, withdrawal) was “significantly increased auditory startle responses”.

Reference: US5399565A, “Pyrazolidinone CCK and gastrin antagonists and pharmaceutical formulations therof” (priority 1993, dated 1995)
